Test results from article PMC12281424, “A Rac-specific competitive inhibitor of guanine nucleotide binding reduces metastasis in triple-negative breast cancer” (Cell Reports Medicine, 2025).

Legend:
[1] = system: RAC1-dependent membrane ruffle formation in NIH 3T3 cells; assay: EGF-induced membrane ruffle formation; assay type: cell-based
Description: Figure 2 Identification of a new RAC1 inhibitor (A) Effect of A41 and NSC23766 on ruffle formation (white arrows) induced by EGF (10 ng/mL) in NIH 3T3 cells in serum-free culture medium (CTL). Inhibitors were added at indicated concentration 1 h prior to EGF stimulation. To assess cytoskeleton organization, cells were incubated with Alexa Fluor 488 phalloidin to visualize F-actin. Results shown are representative of 3 independent experiments. Corresponding concentration-response curves have been established by counting the percentages of cells with ruffles (scale bars: 10 μm). (B) Immunoblot analysis and associated quantification of RAC-GTP level and total RAC expression in NIH 3T3 cells stimulated by EGF (10 ng/mL, 5 min) and pre-incubated or not (−) with NSC23766, A41, or A415 at 10^−5 M for 1 h (∗∗∗p < 0.001 vs. controls without EGF stimulation, ^###p < 0.001 vs. controls with EGF stimulation) (N > 3). […] (D) Representative in vitro nucleotide exchange catalyzed by the DH-PH of TIAM (10 nM) measured by the binding of fluorescent mant-GTP (1 μM) to RAC1 (0.5 μM, preloaded with GDP) in the presence of indicated concentrations of A41 (out of N = 6). […] (E) Kobs and Kmax were determined in each condition (N = 6). […]
After indicated treatments, cells were fixed with 4% paraformaldehyde and permeabilized in PBS 0.5% Triton X-100. […] Cancer cells were detected with firefly luciferase antibody (ab21176, Abcam) (dilution 1/500) overnight at room temperature, followed by secondary Alexa 488-labeled anti-rabbit antibody (dilution 1/1000). […] After staining, cells were mounted in Prolong gold antifade reagent with DAPI and images were captured by a fluorescence microscope. […]
Supp. […] For each molecule, druglikeness has been assessed according to Lipinski’s rules: molecular weight (MW)<500; high lipophilicity (LogP<5); less than 5 hydrogen bond donors (HBD); less than 10 hydrogen bond acceptors (HBA). The log P was calculated by using OSIRIS – Data Warrior software. […] IC50 was determined experimentally from the inhibition

RAC1 = target: T1, RAC1 (Mus musculus, UniProt P63001); assay: RAC-GTP pull-down assay, EGF-stimulated NIH/3T3 fibroblasts; assay type: cell-based; settings: 10^-5 M, 1 h, EGF 10 ng/mL 5 min
T1 construct: endogenous in cells; host or cells: NIH/3T3 fibroblasts (ATCC CRL-1658), EGF-stimulated
Description: Figure 2 Identification of a new RAC1 inhibitor (A) Effect of A41 and NSC23766 on ruffle formation (white arrows) induced by EGF (10 ng/mL) in NIH 3T3 cells in serum-free culture medium (CTL). Inhibitors were added at indicated concentration 1 h prior to EGF stimulation. To assess cytoskeleton organization, cells were incubated with Alexa Fluor 488 phalloidin to visualize F-actin. Results shown are representative of 3 independent experiments. Corresponding concentration-response curves have been established by counting the percentages of cells with ruffles (scale bars: 10 μm). (B) Immunoblot analysis and associated quantification of RAC-GTP level and total RAC expression in NIH 3T3 cells stimulated by EGF (10 ng/mL, 5 min) and pre-incubated or not (−) with NSC23766, A41, or A415 at 10^−5 M for 1 h (∗∗∗p < 0.001 vs. controls without EGF stimulation, ^###p < 0.001 vs. controls with EGF stimulation) (N > 3). (C) Representative surface plasmon resonance (SPR) sensograms of binding of immobilized RAC1 with increasing concentrations of A41 with or without EDTA (20 mM) (N > 3). (D) Representative in vitro nucleotide exchange catalyzed by the DH-PH of TIAM (10 nM) measured by the binding of fluorescent mant-GTP (1 μM) to RAC1 (0.5 μM, preloaded with GDP) in the presence of indicated concentrations of A41 (out of N = 6). Dotted lines correspond to the experimental curves, and continuous lines represent the fit of experimental points. (E) Kobs and Kmax were determined in each condition (N = 6). (F) Predicted binding modes of A4 to the NSC23766-binding site (left) or the GDP-binding pocket of RAC1 (right). In the NSC23766-binding site of RAC1, the compound A4 (carbon atoms in blue) makes 2 hydrogen bonds (green dotted line) with Ser71 (S71) and 10 hydrophobic interactions (pink dotted line) with Ala3 (A3), Lys5 (K5), Val36 (V36), Trp56 (W56), Tyr64 (Y64), and Leu67 (L67) leading to a docking score of −6.03 kcal/mol. The GDP molecule is shown with fine line. The P loop is shown in yellow, the switch 1 in orange, and the switch 2 in green. […]
Pull-down assay using GST-PBD fusion proteins were performed on NIH-3T3 lysates to assess RAC1 activity as previously described.[63] The precipitated active RAC was subjected to SDS-PAGE and detected by immunoblot with anti-RAC1 antibody (BD biosciences) (dilution 1/1000). […]
screening molecules (10^-5 M) on NIH/3T3 cell adhesion (xCELLingence Real-time cellanalysis, Agilent), migration (CYTOO Mobility plates) and proliferation (xCELLingence Real-time cell analysis, Agilent) .The level of RAC activation is determinedby the detection of RAC-GTP (pull-down assay) in NIH/3T3 cell treated with EGF (10 ng/mL) and the differentmolecules and normalize to the level of RAC activity measuredin the presenceof the reference RAC inhibitor EHT1864.

Compound	inhibitory effect on RAC1 [1]	RAC1 activation (active GTP-bound RAC1) (RAC1)
COc1ccc(OC)c(NC(=O)c2ccc(NC(=O)CCSc3ccc(C)cc3)cc2)c1 [Compound A415]	loss of the inhibitory effect on RAC1	no significant effect
CCC(=O)Nc1ccc(S(=O)(=O)Nc2cc(OC)ccc2OC)cc1 [Compound A420]	loss of the inhibitory effect on RAC1	
